Measurements from PubChem BioAssay AID248 (DTP/NCI, 2004).
“And” between values parts separate entries of the source, which are not always exact repeats. Identical values can stand only once. Toxic doses and inconclusive results are not listed.

Test system: L1210 leukemia ip in BDF1 mice, survival T/C
Assay: NCI In Vivo Anticancer Drug Screen. Data for tumor model L1210 Leukemia (intraperitoneal) in B6D2F1 (BDF1) mice
Conditions: endpoint: mean survival time, higher = longer survival
Method in brief: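 Survival endpoint. Drug-treated group vs vehicle group, expressed as T divided by C. Tumor passaged by transplantation.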

[1] = dose: 50.0 mg/kg/injection, schedule: Q04DX003 (ip), vehicle: saline
[2] = dose: 100.0 mg/kg/injection, schedule: Q01DX001 (ip), vehicle: carboxymethylcellulose (CMC)
[3] = dose: 100.0 mg/kg/injection, schedule: Q01DX001 (ip), vehicle: saline
[4] = dose: 100.0 mg/kg/injection, schedule: Q01DX009 (ip), vehicle: Klucel (hydroxypropylcellulose) (HPC)
[5] = dose: 100.0 mg/kg/injection, schedule: Q04DX003 (ip), vehicle: saline
[6] = dose: 200.0 mg/kg/injection, schedule: Q01DX001 (ip), vehicle: carboxymethylcellulose (CMC)
[7] = dose: 200.0 mg/kg/injection, schedule: Q01DX001 (ip), vehicle: saline
[8] = dose: 400.0 mg/kg/injection, schedule: Q01DX001 (ip), vehicle: carboxymethylcellulose (CMC)
[9] = dose: 100.0 mg/kg/injection, schedule: Q04DX003 (ip), vehicle: saline with Tween-80
[10] = dose: 200.0 mg/kg/injection, schedule: Q04DX003 (ip), vehicle: saline with Tween-80
[11] = dose: 400.0 mg/kg/injection, schedule: Q04DX003 (ip), vehicle: saline with Tween-80
[12] = dose: 400.0 mg/kg/injection, schedule: Q01DX001 (ip), vehicle: saline
[13] = dose: 100.0 mg/kg/injection, schedule: Q04DX002 (ip), vehicle: saline with Tween-80
[14] = dose: 200.0 mg/kg/injection, schedule: Q04DX002 (ip), vehicle: saline with Tween-80

Nc1nc(Cl)nc2c1ncn2C1OC(CO)C(O)C1O (stereo not drawn)
T/C (dose: 25.0 mg/kg/injection, schedule: Q01DX009 (ip), vehicle: Klucel (hydroxypropylcellulose) (HPC)): 102 % of control | T/C (dose: 37.5 mg/kg/injection, schedule: Q01DX009 (ip), vehicle: saline with Tween-80): 113 % of control | T/C (dose: 50.0 mg/kg/injection, schedule: Q01DX001 (ip), vehicle: carboxymethylcellulose (CMC)): 93 % of control | T/C (dose: 50.0 mg/kg/injection, schedule: Q01DX009 (ip), vehicle: Klucel (hydroxypropylcellulose) (HPC)): 114 % of control | T/C [1]: 108 % of control | T/C [2]: 96 % of control | T/C [3]: 92 % of control | T/C [4]: 123 % of control | T/C (dose: 100.0 mg/kg/injection, schedule: Q01DX009 (ip), vehicle: saline): 156 % of control | T/C [5]: 113 % of control | T/C [6]: 98 % of control | T/C [7]: 103 % of control | T/C (dose: 225.0 mg/kg/injection, schedule: Q01DX009 (ip), vehicle: saline): 121 % of control | T/C (dose: 300.0 mg/kg/injection, schedule: Q04DX003 (ip), vehicle: saline): 153 % of control | T/C [8]: 118 % of control

COc1ccc(CC(=O)c2ccccc2)cc1
T/C (dose: 100.0 mg/kg/injection, schedule: Q04DX002 (ip), vehicle: saline): 92 % of control | T/C (dose: 200.0 mg/kg/injection, schedule: Q04DX002 (ip), vehicle: saline): 95 % of control | T/C (dose: 400.0 mg/kg/injection, schedule: Q04DX002 (ip), vehicle: saline): 104 % of control

CCc1ccc(NS(=O)(=O)c2ccc(OC)cc2)cc1
T/C [4]: 102 % of control | T/C (dose: 200.0 mg/kg/injection, schedule: Q01DX009 (ip), vehicle: Klucel (hydroxypropylcellulose) (HPC)): 100 % of control | T/C (dose: 400.0 mg/kg/injection, schedule: Q01DX009 (ip), vehicle: Klucel (hydroxypropylcellulose) (HPC)): 109 % of control

COP(=S)(N/N=C/c1ccccn1)OC
T/C [9]: 106 % of control | T/C [10]: 97 % of control | T/C [11]: 108 % of control

CC(OC(=O)Nc1ccccc1)C(=O)O (stereo not drawn)
T/C (dose: 100.0 mg/kg/injection, schedule: Q01DX009 (ip), vehicle: saline with Tween-80): 92 % of control | T/C [9]: 96 % of control | T/C (dose: 200.0 mg/kg/injection, schedule: Q01DX009 (ip), vehicle: saline with Tween-80): 92 % of control | T/C [10]: 101 % of control | T/C (dose: 400.0 mg/kg/injection, schedule: Q01DX009 (ip), vehicle: saline with Tween-80): 95 % of control | T/C [11]: 96 % of control

COc1ccc(C(=O)c2cc(Br)ccc2O)cc1
T/C [2]: 98 % of control | T/C [6]: 100 % of control | T/C [8]: 98 % of control

OC1CC(c2ccccc2)C1(c1ccccc1)c1ccccc1 (stereo not drawn)
T/C (dose: 75.0 mg/kg/injection, schedule: Q01DX001 (ip), vehicle: other): 104 % of control | T/C (dose: 150.0 mg/kg/injection, schedule: Q01DX001 (ip), vehicle: other): 102 % of control | T/C (dose: 300.0 mg/kg/injection, schedule: Q01DX001 (ip), vehicle: other): 94 % of control

COc1cc([N+](=O)[O-])c(C=O)cc1O
T/C (dose: 100.0 mg/kg/injection, schedule: Q01DX009 (ip), vehicle: acetone): 97 % of control | T/C (dose: 200.0 mg/kg/injection, schedule: Q01DX009 (ip), vehicle: acetone): 100 % of control | T/C (dose: 400.0 mg/kg/injection, schedule: Q01DX009 (ip), vehicle: acetone): 100 % of control

OC(CNc1ccccc1)CN1CCCCC1 (stereo not drawn)
T/C [5]: 94 % of control

NNC(=O)CCSc1ccccc1
T/C (dose: 12.5 mg/kg/injection, schedule: Q01DX009 (ip), vehicle: saline with Tween-80): 89 % of control | T/C (dose: 25.0 mg/kg/injection, schedule: Q01DX009 (ip), vehicle: saline with Tween-80): 99 % of control | T/C (dose: 50.0 mg/kg/injection, schedule: Q01DX009 (ip), vehicle: saline with Tween-80): 105 % of control

Clc1ccc(/C=N/Nc2nnc(N/N=C/c3ccc(Cl)cc3)c3ccccc23)cc1
T/C (dose: 50.0 mg/kg/injection, schedule: Q01DX001 (ip), vehicle: saline): 95 % of control | T/C [3]: 101 % of control | T/C [7]: 101 % of control | T/C [12]: 95 % of control

COC(=O)C1C2CCC1(C)C(O)C2 (stereo not drawn)
T/C (dose: 75.0 mg/kg/injection, schedule: Q01DX009 (ip), vehicle: saline with Tween-80): 96 % of control | T/C (dose: 150.0 mg/kg/injection, schedule: Q01DX009 (ip), vehicle: saline with Tween-80): 107 % of control | T/C (dose: 300.0 mg/kg/injection, schedule: Q01DX009 (ip), vehicle: saline with Tween-80): 100 % of control

O=P(O)(N(CCCl)CCCl)N1CCN(P(=O)(O)N(CCCl)CCCl)CC1
T/C (dose: 10.0 mg/kg/injection, schedule: Q01DX015 (ip), vehicle: saline): 110 % of control | T/C (dose: 30.0 mg/kg/injection, schedule: Q01DX015 (ip), vehicle: saline): 119 % of control | T/C [3]: 115 % of control | T/C [7]: 113 % of control | T/C [12]: 124 % of control

O=C1OC(=O)C2C1C1(Cl)CC2(Cl)C(Cl)=C1Cl (stereo not drawn)
T/C (dose: 75.0 mg/kg/injection, schedule: Q01DX009 (ip), vehicle: other): 101 % of control | T/C (dose: 150.0 mg/kg/injection, schedule: Q01DX009 (ip), vehicle: other): 88 % of control

COC(=O)c1cc(OC)cc(OC)c1C(=O)c1c(OC)c(Cl)c(C)c(Cl)c1OC
T/C (dose: 50.0 mg/kg/injection, schedule: Q04DX002 (ip), vehicle: saline with Tween-80): 110 % of control | T/C [13]: 95 % of control | T/C [14]: 100 % of control

NC(=S)c1ccc(N)cc1
T/C (dose: 12.5 mg/kg/injection, schedule: Q04DX003 (ip), vehicle: saline): 105 % of control | T/C (dose: 25.0 mg/kg/injection, schedule: Q04DX003 (ip), vehicle: saline): 103 % of control | T/C [1]: 97 % of control and 102 % of control | T/C (dose: 75.0 mg/kg/injection, schedule: Q04DX003 (ip), vehicle: saline): 106 % of control | T/C (dose: 115.0 mg/kg/injection, schedule: Q04DX003 (ip), vehicle: saline): 97 % of control

CCC(C)C(CN)(CCN1CCCCC1)Cc1cccc2ccccc12 (stereo not drawn)
T/C (dose: 12.5 mg/kg/injection, schedule: Q04DX003 (ip), vehicle: saline + alcohol): 96 % of control | T/C (dose: 25.0 mg/kg/injection, schedule: Q04DX003 (ip), vehicle: saline + alcohol): 93 % of control | T/C (dose: 50.0 mg/kg/injection, schedule: Q04DX003 (ip), vehicle: saline + alcohol): 96 % of control

COC(=O)c1cccc(-c2cccc(C(=O)OC)c2)c1
T/C [2]: 96 % of control | T/C [6]: 96 % of control | T/C [8]: 100 % of control

CC(=O)Oc1ccc(N2C(=O)C=CC2=O)cc1 (tested in a mixture with another compound)
T/C (dose: 100.0 mg/kg/injection, schedule: Q04DX003 (ip), vehicle: acetone): 96 % of control | T/C (dose: 100.0 mg/kg/injection, schedule: Q04DX003 (ip), vehicle: other): 89 % of control | T/C (dose: 200.0 mg/kg/injection, schedule: Q04DX003 (ip), vehicle: acetone): 96 % of control | T/C (dose: 400.0 mg/kg/injection, schedule: Q04DX003 (ip), vehicle: acetone): 100 % of control | T/C (dose: 400.0 mg/kg/injection, schedule: Q04DX003 (ip), vehicle: other): 87 % of control

CC(C)(C)CC(C)(C)NCC(O)COc1ccc(C(C)(C)c2ccc(OCC(O)CNC(C)(C)CC(C)(C)C)cc2)cc1 (stereo not drawn)
T/C (dose: 3.13 mg/kg/injection, schedule: Q04DX003 (ip), vehicle: other): 93 % of control | T/C (dose: 6.25 mg/kg/injection, schedule: Q01DX001 (ip), vehicle: saline sonified): 97 % of control | T/C (dose: 6.25 mg/kg/injection, schedule: Q04DX003 (ip), vehicle: other): 97 % of control | T/C (dose: 12.5 mg/kg/injection, schedule: Q01DX001 (ip), vehicle: saline sonified): 96 % of control | T/C (dose: 12.5 mg/kg/injection, schedule: Q04DX003 (ip), vehicle: other): 98 % of control | T/C (dose: 25.0 mg/kg/injection, schedule: Q04DX003 (ip), vehicle: other): 93 % of control

S=c1[nH]c2cc(Cl)ccc2s1
T/C (dose: 100.0 mg/kg/injection, schedule: Q04DX002 (ip), vehicle: Klucel (hydroxypropylcellulose) (HPC)): 93 % of control | T/C (dose: 200.0 mg/kg/injection, schedule: Q04DX002 (ip), vehicle: Klucel (hydroxypropylcellulose) (HPC)): 96 % of control | T/C (dose: 400.0 mg/kg/injection, schedule: Q04DX002 (ip), vehicle: Klucel (hydroxypropylcellulose) (HPC)): 86 % of control

O=CC(O)C(O)C(Cl)C(O)CCl (stereo not drawn)
T/C [13]: 90 % of control | T/C [14]: 97 % of control | T/C (dose: 400.0 mg/kg/injection, schedule: Q04DX002 (ip), vehicle: saline with Tween-80): 93 % of control
